{"source": "paper PMC9588780", "about": "“Purification and structural characterization of the Na^+-translocating ferredoxin: NAD^+ reductase (Rnf) complex of Clostridium tetanomorphum” (Nature Communications, 2022)", "molecules": {"B1": {"name": "RnfB subunit of the Na+-translocating ferredoxin:NAD+ reductase (Rnf) complex of Clostridium tetanomorphum (natural protein, UniProt A0A923E755 1-274, looked up)", "chain": "MEGLLFPVLSLGGLGVVFGLLLGYASKKFAVEVDERVPMVRAALPGANCGGCGFAGCDAYADAVVNAGAKPNGCPVGGAACAAKIAEIMGVVVDSSEPKKAYVKCQGTCDKAKEKYEYYGAMTCVDAANIPGAGSKTCGFGCLGLGSCVQVCAFDAIHVENGIAVVDEEACTGCGACVSICPKSVIELTPMSKKVRISCNSHDKGIEVKNACSVGCLSCGLCVRNCPSEAITMVNNLPVIDYDKCTQCGVCVGKCPTKAIVNLNTNVSKEASNN", "notes": "native subunit of the purified Rnf complex; Carries five reliably identified [4Fe-4S] clusters; a sixth in FdI is held likely; also called ferredoxin subunit RnfB"}}, "key": {"[1]": {"biological_target": "T1, Rnf complex (RnfABCDEG), RnfG site (Clostridium tetanomorphum, UniProt A0A923J084)", "T1 construct": "native six-subunit membrane complex purified from C. tetanomorphum, in MSP1D1/DMPC nanodisc; RnfG 20 kDa; with Ion-translocating oxidoreductase complex subunit A; Ion-translocating oxidoreductase complex subunit B; Ion-translocating oxidoreductase complex subunit C; Ion-translocating oxidoreductase complex subunit D; Ion-translocating oxidoreductase complex subunit E", "T1 sequence (A0A923J084 1-189, one chain of several)": "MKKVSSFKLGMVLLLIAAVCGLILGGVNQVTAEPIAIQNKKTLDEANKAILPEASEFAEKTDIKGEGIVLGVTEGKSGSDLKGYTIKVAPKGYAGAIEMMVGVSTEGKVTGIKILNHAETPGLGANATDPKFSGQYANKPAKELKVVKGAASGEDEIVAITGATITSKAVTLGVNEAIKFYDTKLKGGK", "T1 sequence (A0A923J0P9 1-191 partner, one chain of several)": "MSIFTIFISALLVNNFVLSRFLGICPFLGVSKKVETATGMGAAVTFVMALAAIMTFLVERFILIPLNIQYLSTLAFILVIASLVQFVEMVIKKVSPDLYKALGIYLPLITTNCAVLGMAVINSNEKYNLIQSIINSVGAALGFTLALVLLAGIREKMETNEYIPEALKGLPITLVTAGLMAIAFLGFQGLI", "T1 sequence (A0A923IZB8 1-202 partner, one chain of several)": "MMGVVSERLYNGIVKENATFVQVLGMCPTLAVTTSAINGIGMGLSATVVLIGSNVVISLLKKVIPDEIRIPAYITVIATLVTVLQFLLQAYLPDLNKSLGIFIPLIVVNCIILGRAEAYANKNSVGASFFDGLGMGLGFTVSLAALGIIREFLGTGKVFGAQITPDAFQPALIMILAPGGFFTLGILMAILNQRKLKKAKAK", "T1 sequence (A0A923IZ11 1-435 partner, one chain of several)": "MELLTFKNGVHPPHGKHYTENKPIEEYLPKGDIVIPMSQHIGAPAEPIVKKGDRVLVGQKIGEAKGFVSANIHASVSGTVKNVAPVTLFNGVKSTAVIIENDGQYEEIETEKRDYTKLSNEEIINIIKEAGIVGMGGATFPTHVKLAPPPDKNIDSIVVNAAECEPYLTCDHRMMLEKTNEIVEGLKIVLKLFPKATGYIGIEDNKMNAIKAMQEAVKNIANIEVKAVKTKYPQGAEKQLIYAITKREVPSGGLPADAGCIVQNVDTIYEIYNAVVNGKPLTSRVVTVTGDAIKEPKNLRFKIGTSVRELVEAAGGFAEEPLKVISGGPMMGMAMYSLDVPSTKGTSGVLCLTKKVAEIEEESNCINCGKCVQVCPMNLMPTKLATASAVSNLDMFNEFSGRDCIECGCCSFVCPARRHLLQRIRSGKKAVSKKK", "assay": "cryo-EM structure ([…] Å); UV fluorescence on SDS-PAGE", "type": "binding", "conditions": "covalent; phosphoester to Thr164 of RnfG"}, "[2]": {"biological_target": "T2, Rnf complex (RnfABCDEG), RnfD site (Clostridium tetanomorphum, UniProt A0A923IYK2)", "T2 construct": "native six-subunit membrane complex purified from C. tetanomorphum, in MSP1D1/DMPC nanodisc; RnfD 33 kDa; with Ion-translocating oxidoreductase complex subunit A; Ion-translocating oxidoreductase complex subunit B; Ion-translocating oxidoreductase complex subunit C; Ion-translocating oxidoreductase complex subunit E; Ion-translocating oxidoreductase complex subunit G", "T2 sequence (A0A923IZ11 1-435 partner, one chain of several)": "as above", "T2 sequence (A0A923J0P9 1-191 partner, one chain of several)": "as the sequence (A0A923J0P9 1-191 partner, one chain of several) above", "T2 sequence (A0A923IZB8 1-202 partner, one chain of several)": "as the sequence (A0A923IZB8 1-202 partner, one chain of several) above", "T2 sequence (A0A923J084 1-189 partner, one chain of several)": "as the sequence (A0A923J084 1-189, one chain of several) above", "assay": "cryo-EM structure ([…] Å)", "type": "binding"}, "[3]": {"biological_target": "T3, Rnf complex (RnfABCDEG), RnfC site (Clostridium tetanomorphum, UniProt A0A923IZ11)", "T3 construct": "gene rsxC; native six-subunit membrane complex purified from C. tetanomorphum in DDM (MSP1D1/DMPC nanodisc for cryo-EM); RnfC 1-435, 47 kDa; complex ca. 200-250 kDa; with Ion-translocating oxidoreductase complex subunit A; Ion-translocating oxidoreductase complex subunit B; Ion-translocating oxidoreductase complex subunit D; Ion-translocating oxidoreductase complex subunit E; Ion-translocating oxidoreductase complex subunit G", "T3 sequence (A0A923IZ11 1-435, one chain of several)": "as the sequence (A0A923IZ11 1-435 partner, one chain of several) above", "T3 sequence (A0A923J0P9 1-191 partner, one chain of several)": "as the sequence (A0A923J0P9 1-191 partner, one chain of several) above", "T3 sequence (A0A923IZB8 1-202 partner, one chain of several)": "as the sequence (A0A923IZB8 1-202 partner, one chain of several) above", "T3 sequence (A0A923J084 1-189 partner, one chain of several)": "as the sequence (A0A923J084 1-189, one chain of several) above", "assay": "NADH oxidation, hexacyanoferrate(III) reduction at […] nm", "type": "biochemical", "conditions": "200 µM NADH, 100 µM hexacyanoferrate(III), 150 mM NaCl, 50 mM potassium phosphate pH 7.5, 0.05% DDM, room temperature, anaerobic"}, "[4]": {"biological_target": "T3, Rnf complex (RnfABCDEG), RnfC site", "assay": "coupled enzyme assay with Etf/butyryl-CoA dehydrogenase, […] nm", "type": "biochemical", "conditions": "reduced ferredoxin as electron donor (50 µM Fd), crotonyl-CoA, room temperature"}, "[5]": {"biological_target": "T4, RnfD subunit of the Na+-translocating ferredoxin:NAD+ reductase (Rnf) complex of Clostridium tetanomorphum (Clostridium tetanomorphum (endogenous …, UniProt A0A923IYK2 1-310, FMN covalently attached by its phospho group to the Thr153 hydroxy group))", "T4 construct": "native subunit of the purified Rnf complex; Also holds a riboflavin", "T4 sequence (looked up)": "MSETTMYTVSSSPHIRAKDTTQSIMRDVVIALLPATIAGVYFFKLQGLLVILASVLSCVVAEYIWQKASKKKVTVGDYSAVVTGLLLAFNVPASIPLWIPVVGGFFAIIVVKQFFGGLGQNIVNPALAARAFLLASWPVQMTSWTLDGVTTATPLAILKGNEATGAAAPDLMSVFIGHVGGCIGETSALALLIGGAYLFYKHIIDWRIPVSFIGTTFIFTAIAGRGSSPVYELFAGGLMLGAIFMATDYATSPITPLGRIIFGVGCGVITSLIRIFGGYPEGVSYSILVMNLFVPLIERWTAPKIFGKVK", "assay": "cryo-EM structure; native Rnf complex of C. tetanomorphum reconstituted into a DMPC-filled MSP1D1 nanodisc; grids prepared in an anaerobic tent (95% N2, 5% H2); 88,423 particles, overall resolution 4.27 Å", "conditions": "both partners purified"}}}
{"molecule": "Cc1cc2nc3c(=O)[nH]c(=O)nc-3n(C[C@H](O)[C@H](O)[C@H](O)COP(=O)(O)O)c2cc1C", "note": "[FMN]", "values": [{"measurement": "cryo-EM structure (4.27 Å); UV fluorescence on SDS-PAGE", "setting": "[1]", "result": "FMN is covalently attached via its phospho group to the conserved Thr164"}, {"measurement": "cryo-EM structure (4.27 Å)", "setting": "[2]; covalent, phosphoester to Thr153 of RnfD (covalent FMN seen in structure; RnfD band not detected by UV on SDS-PAGE)", "result": "The phospho group of FMNRnfD is covalently attached to the well-conserved Thr153 hydroxy group"}]}
{"molecule": "NC(=O)C1=CN([C@@H]2O[C@H](COP(=O)(O)OP(=O)(O)OC[C@H]3O[C@@H](n4cnc5c(N)ncnc54)[C@H](O)[C@@H]3O)[C@@H](O)[C@H]2O)C=CC1", "note": "[NADH]", "values": [{"measurement": "NADH oxidation, hexacyanoferrate(III) reduction at 420 nm", "setting": "[3]", "result": "using hexacyanoferrate(III) as electron acceptor for NADH oxidation"}]}
{"molecule": "NC(=O)c1ccc[n+]([C@@H]2O[C@H](COP(=O)(O)OP(=O)(O)OC[C@H]3O[C@@H](n4cnc5c(N)ncnc54)[C@H](O)[C@@H]3O)[C@@H](O)[C@H]2O)c1", "note": "[NAD^+]", "values": [{"measurement": "coupled enzyme assay with Etf/butyryl-CoA dehydrogenase, 340 nm", "setting": "[4]", "result": "The biological relevant NAD^+ reduction with Fdred was determined with a coupled enzyme assay"}]}
{"molecule": "Cc1cc2nc3c(=O)[nH]c(=O)nc-3n(C[C@H](O)[C@H](O)[C@H](O)CO)c2cc1C", "note": "[RBF, riboflavin]", "values": [{"measurement": "cryo-EM structure (4.27 Å)", "setting": "[2]; cytoplasmic half-channel pocket of RnfD near Asn124 and Asp248, density assigned with help of A. vinelandii Rnf structure", "result": "the density becomes interpretable as riboflavin"}]}
{"molecule": "B1", "values": [{"measurement": "binding result", "setting": "[5]", "result": "binds"}]}
